Values after ≈ are worked out from the molar mass of the structure shown. Some results are limits rather than exact numbers.

In one test the test system is XDR-Kp. As to the kind of experiment: Drug sensitivity test of clinical strains (Table S2). It is filed as cell-based, Klebsiella pneumoniae. The conditions noted are these: value in brackets; for MIC: Klebsiella pneumoniae.
The next test concerns XDR-AB. The test is described as above. It counts as cell-based, Acinetobacter baumannii. To be noted: value in brackets; for MIC: Acinetobacter baumannii.
A further test relates to XDR-E. coli. The test is described as above. It counts as cell-based, Escherichia coli. The conditions noted are these: value in brackets; for MIC: Escherichia coli.
The next test concerns XDR-PA. The description is as above. It is filed as cell-based, Pseudomonas aeruginosa. To be noted: value in brackets; for MIC: Pseudomonas aeruginosa.
Test [1] has as its system XDR-PA (clinically isolated XDR Pseudomonas aeruginosa). The experiment in a line: Minimum inhibitory concentration, broth dilution (Table S1). To be noted: CLSI guidelines, 10^5 CFU mL−1, 24 h, 37 °C, visible growth. It is filed as cell-based. Here is the method: (§1) Four clinically isolated XDR strains were cultured in LB media at 37 °C with rotation (180 rpm) overnight. […] The bacterial concentration was adjusted to 10^5 CFU mL^−1.
(In general: Dilution methods test growth across graded concentrations, often in twofold steps.)

Test [2] has as its system XDR-Kp (clinically isolated XDR Klebsiella pneumoniae). The test is described as above. It counts as cell-based. The conditions noted are these: CLSI guidelines, 10^5 CFU mL−1, 24 h, 37 °C, visible growth. Here is the method: as §1
Test [3] deals with XDR-E. coli (clinically isolated XDR Escherichia coli). The description is as above. To be noted: CLSI guidelines, 10^5 CFU mL−1, 24 h, 37 °C, visible growth. It is filed as cell-based. The procedure:
as §1

Test [4] deals with XDR-AB (clinically isolated XDR Acinetobacter baumannii). Described as above. It counts as cell-based. To be noted: CLSI guidelines, 10^5 CFU mL−1, 24 h, 37 °C, visible growth. Here is the method:
as §1

Regarding `NCC[C@H](O)C(=O)N[C@@H]1C[C@H](N)[C@@H](O[C@H]2O[C@H](CN)[C@@H](O)[C@H](O)[C@H]2O)[C@H](O)[C@H]1O[C@H]1O[C@H](CO)[C@@H](O)[C@H](N)[C@H]1O` [Amikacin], the minimum inhibitory concentration (MIC) against XDR-Kp, in the test on XDR-AB, in the test with XDR-E. coli and in the test on XDR-PA was at least 64 µg/mL in each case.

Consider `CC1(C)S[C@@H]2[C@H](NC(=O)[C@H](N)c3ccccc3)C(=O)N2[C@H]1C(=O)O` [Ampicillin], for which the MIC against XDR-Kp, in the test on XDR-AB, against XDR-E. coli and with XDR-PA was at least 32 µg/mL in each case.

As for `Cc1nnc(SCC2=C(C(=O)O)N3C(=O)[C@@H](NC(=O)Cn4cnnn4)[C@H]3SC2)s1` [Cefazolin], the MIC against XDR-Kp, in the test with XDR-AB, against XDR-E. coli and against XDR-PA was at least 64 µg/mL each time.

Regarding `CO/N=C(\C(=O)N[C@@H]1C(=O)N2C(C(=O)[O-])=C(C[N+]3(C)CCCC3)CS[C@H]12)c1csc(N)n1` [Cefepime], the minimal inhibitory concentration (MIC) in the test on XDR-Kp, in the test with XDR-AB, against XDR-E. coli and against XDR-PA was at least 64 µg/mL throughout.

Turning to `CO[C@@]1(NC(=O)C2SC(=C(C(N)=O)C(=O)O)S2)C(=O)N2C(C(=O)O)=C(CSc3nnnn3C)CS[C@@H]21` (some centres unmarked) [Cefotetan], the MIC in the test on XDR-Kp, against XDR-AB, in the test on XDR-E. coli and in the test on XDR-PA was at least 64 µg/mL in each case.

On to `CC(C)(O/N=C(\C(=O)N[C@@H]1C(=O)N2C(C(=O)[O-])=C(C[n+]3ccccc3)CS[C@H]12)c1csc(N)n1)C(=O)O` [Ceftazidime], for which the MIC against XDR-Kp, in the test with XDR-AB, in the test with XDR-E. coli and in the test with XDR-PA was at least 64 µg/mL each time.

In the case of `C[C@@H](O)[C@H]1C(=O)N2C(C(=O)O)=C(SCCN=CN)C[C@H]12` [Imipenem], the MIC in the test with XDR-Kp, against XDR-AB, in the test on XDR-E. coli and in the test on XDR-PA was at least 16 µg/mL in each case.

In the case of `C[C@H]1COc2c(N3CCN(C)CC3)c(F)cc3c(=O)c(C(=O)O)cn1c23` [Levofloxacin], the minimum inhibitory concentration (MIC) in the test with XDR-Kp is at least 8 µg/mL; against XDR-AB, at least 8 µg/mL; in the test with XDR-E. coli it was 11 µg/mL (≈ 30.4 µM); against XDR-PA it was at least 8 µg/mL.

In turn, `CN(C)c1cc(NC(=O)CNC(C)(C)C)c(O)c2c1C[C@H]1C[C@H]3[C@H](N(C)C)C(O)=C(C(N)=O)C(=O)[C@@]3(O)C(O)=C1C2=O` [Tigecycline] yielded an MIC with XDR-AB of 0.38 µg/mL (≈ 0.649 µM).

Take `NC[C@H]1O[C@H](O[C@H]2[C@H](O)[C@@H](O[C@H]3O[C@H](CO)[C@@H](O)[C@H](N)[C@H]3O)[C@H](N)C[C@@H]2N)[C@H](N)C[C@@H]1O` [Tobramycin]: the MIC with XDR-Kp, in the test with XDR-AB, against XDR-E. coli and in the test on XDR-PA was at least 16 µg/mL each time.

For Gentamycin, the “MIC (drug sensitivity test)” value with XDR-Kp, in the test on XDR-AB, with XDR-E. coli and in the test on XDR-PA was “>= 16 µg mL-1” in each case.

Turning to Polymyxin B [PMB], the MIC turned out to be 8 µg/mL in test [1], 16 µg/mL in test [2], 16 µg/mL in test [3] and 32 µg/mL in test [4]. The “MIC (drug sensitivity test)” value in the test on XDR-E. coli and with XDR-PA was 0.5 µg/mL each time.

What is called MIC is the smallest concentration in the dilution series that meets the test's criterion for growth inhibition. Lower therefore signals inhibition by little substance.

For the origin of these results see PMC11434100, “Biomimetic Metal–Organic Framework Gated Nanoplatform for Sonodynamic Therapy against Extensively Drug Resistant Bacterial Lung Infection” (Advanced Science, 2024).
